US10898481B2 (priority 2018, dated 2021)
Where two headings read alike, the source gives them in different places.

Legend:
[1] = target: hA2b/CHO (Homo sapiens (Human), UniProt P29275); experiment: cAMP inhibition assay in hA2b/CHO cells, 10 μM adenosine; type: cell-based; settings: read-out: cAMP & FLIPR IC50 (nM) hA2b;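 also: cells exposed to compound 30 min at 37 °C, then stimulated with adenosine a further 30 min, cAMP read after 60 min at room temperature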
[2] = target: hA2a/CHO (Homo sapiens (Human), UniProt P29274); experiment: cAMP inhibition assay in hA2a/CHO cells, 10 μM adenosine; type: cell-based; settings: read-out: cAMP & FLIPR IC50 (nM) hA2a;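 also: compounds added to cells 30 min ahead of adenosine, then a further 30 min at 37 °C with adenosine before cAMP detection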
Chain of hA2a/CHO (P29274 whole entry): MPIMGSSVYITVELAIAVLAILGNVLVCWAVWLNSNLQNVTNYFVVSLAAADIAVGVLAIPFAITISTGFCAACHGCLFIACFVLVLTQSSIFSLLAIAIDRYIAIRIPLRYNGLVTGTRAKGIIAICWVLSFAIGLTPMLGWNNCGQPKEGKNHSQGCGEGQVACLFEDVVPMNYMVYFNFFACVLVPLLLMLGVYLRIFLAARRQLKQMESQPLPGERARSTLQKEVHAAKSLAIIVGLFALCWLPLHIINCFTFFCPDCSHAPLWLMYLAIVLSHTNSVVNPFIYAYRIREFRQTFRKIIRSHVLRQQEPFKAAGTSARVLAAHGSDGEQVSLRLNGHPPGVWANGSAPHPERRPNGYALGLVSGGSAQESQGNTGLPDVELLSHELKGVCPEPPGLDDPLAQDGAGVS

[3] = target: hA3/CHO (Homo sapiens (Human), UniProt P0DMS8); experiment: cell-based
Chain of hA3/CHO (P0DMS8 whole entry): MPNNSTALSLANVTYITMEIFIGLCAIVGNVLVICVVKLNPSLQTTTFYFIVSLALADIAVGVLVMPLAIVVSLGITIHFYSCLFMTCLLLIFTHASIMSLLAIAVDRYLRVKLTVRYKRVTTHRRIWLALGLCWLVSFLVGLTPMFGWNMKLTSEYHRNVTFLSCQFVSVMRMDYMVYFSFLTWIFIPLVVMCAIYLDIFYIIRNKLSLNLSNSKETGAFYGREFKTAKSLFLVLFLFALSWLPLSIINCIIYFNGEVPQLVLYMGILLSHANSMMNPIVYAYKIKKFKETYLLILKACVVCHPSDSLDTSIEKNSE
Description: hA2a/CHO, hA2b/CHO, hA3/CHO and mA2a/CHO (Genscript) were plated at 5×10^3 cells/well into 384-well polystyrene plates at the day of experiment. Compounds were pre-incubated with cells for 30 min at 37° C., 5% CO2. Then 10 μM adenosine was added to the cells and incubated for 30 min at 37° C., 5% CO2. Detection reagent (CISBIO) was added and the plates were incubated for 60 min at room temperature. The signal was captured by Envision.

[4] = target: hA2b (Homo sapiens (Human), UniProt P29275); experiment: Radioligand binding to hA2b membrane with [3H]-DPCPX; settings: read-out: Binding Affinity (IC50 nM) hA2b
Chain of hA2b (P29275 whole entry): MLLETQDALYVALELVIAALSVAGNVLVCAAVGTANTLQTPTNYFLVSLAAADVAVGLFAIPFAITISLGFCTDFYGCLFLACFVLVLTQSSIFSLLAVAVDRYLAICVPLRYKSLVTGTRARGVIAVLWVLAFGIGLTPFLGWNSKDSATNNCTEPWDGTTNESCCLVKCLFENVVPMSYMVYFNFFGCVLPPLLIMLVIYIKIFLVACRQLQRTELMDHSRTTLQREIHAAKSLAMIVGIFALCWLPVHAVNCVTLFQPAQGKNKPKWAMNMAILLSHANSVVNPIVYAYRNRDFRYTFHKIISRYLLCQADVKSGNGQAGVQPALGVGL
Excerpt: (§1) The empty boxes in the tables below indicate data not collected yet.

[5] = target: hADORA1/CHO (hA1 expressing) cells (Homo sapiens (Human), UniProt P30542); experiment: cell-based; settings: 10 μM adenosine
Chain of hADORA1/CHO (hA1 expressing) cells (P30542 whole entry): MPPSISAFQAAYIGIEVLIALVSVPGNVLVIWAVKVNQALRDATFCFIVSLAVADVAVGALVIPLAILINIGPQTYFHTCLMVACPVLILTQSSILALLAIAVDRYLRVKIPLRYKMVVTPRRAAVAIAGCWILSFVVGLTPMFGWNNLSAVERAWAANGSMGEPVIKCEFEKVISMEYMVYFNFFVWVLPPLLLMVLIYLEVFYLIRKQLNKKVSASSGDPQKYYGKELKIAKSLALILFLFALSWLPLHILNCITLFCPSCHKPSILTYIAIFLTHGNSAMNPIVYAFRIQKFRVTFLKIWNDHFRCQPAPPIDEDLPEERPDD
Description: hADORA1/CHO (hA1 expressing) cells (Genscript) were plated at 1×10^4 cells/well into 384-well polystyrene plates one day before starting the experiment. On the day of experiment, the supernatant was discard and replaced with 40 μL of dye (FLIPR calcium 5 Assay Kit) per well and the plates were incubated for 60 mins at 37° C. plus 5% CO2. Then testing compounds were added at different concentrations for FLIPR™ inhibition assay. After a 400s incubation with compound, 10 μM adenosine was added into the cells, and the signal was captured by FLIPR.

[6] = target: hA2a (Homo sapiens (Human), UniProt P29274); experiment: Radioligand binding to hA2a membrane with [3H]-CGS21680; settings: read-out: Binding Affinity (IC50 nM) hA2a
Chain of hA2a (P29274 whole entry): as the sequence (P29274 whole entry) above
Excerpt: as §1

[7] = target: mA2a/CHO (Mus musculus (Mouse), UniProt Q60613); experiment: cAMP inhibition assay in mA2a/CHO cells, 10 μM adenosine; type: cell-based; settings: read-out: cAMP & FLIPR IC50 (nM) mA2a;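 also: compounds preincubated 30 min at 37 °C before the adenosine challenge, then 30 min further stimulation, readout after 60 min detection reagent incubation at room temperature in 384-well plates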
Chain of mA2a/CHO (Q60613 whole entry): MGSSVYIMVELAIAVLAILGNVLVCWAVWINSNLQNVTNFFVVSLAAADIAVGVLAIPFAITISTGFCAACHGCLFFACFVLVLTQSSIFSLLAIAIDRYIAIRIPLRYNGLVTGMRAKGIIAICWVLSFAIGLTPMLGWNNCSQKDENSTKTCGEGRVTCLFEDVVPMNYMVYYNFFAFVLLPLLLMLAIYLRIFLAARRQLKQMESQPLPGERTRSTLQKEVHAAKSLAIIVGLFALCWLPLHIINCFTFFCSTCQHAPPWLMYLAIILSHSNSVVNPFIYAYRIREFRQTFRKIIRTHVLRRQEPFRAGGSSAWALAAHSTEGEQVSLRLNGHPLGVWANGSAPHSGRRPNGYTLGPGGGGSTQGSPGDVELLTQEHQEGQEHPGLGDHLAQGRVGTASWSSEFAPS

[8] = target: hA1 (Homo sapiens (Human), UniProt P30542); settings: hA1 membrane, [3H]-DPCPX; read-out: Binding Affinity (IC50 nM) hA1
Chain of hA1 (P30542 whole entry): as the sequence (P30542 whole entry) above
Excerpt: as §1

[9] = FLIPR inhibition, read-out: cAMP & FLIPR IC50 (nM) hA1
[10] = cAMP & FLIPR IC50 (nM) hA1, FLIPR inhibition

Chain of hA2b/CHO (P29275 whole entry): as the sequence (P29275 whole entry) above

Compound	IC50 [1]	IC50 [2]	IC50 [3]	IC50 [4]	IC50 [5, 9]	IC50 [6]	IC50 [7]	IC50 [8]	IC50 [5, 10]
Cn1cc(-c2nc(C(=O)NCc3c(F)cccc3F)c(N)nc2-c2ncco2)ccc1=O [Example 3, 3-amino-N-(2,6-difluorobenzyl)-6-(1-methyl-6-oxo-1,6-dihydropyridin-3-yl)-5-(oxazol-2-yl)pyrazine-2-carboxamide]	53 nM	4.5 nM	≥ 10000 nM	1.4 nM	159 nM	1.9 nM	5.8 nM	16 nM	
CN(C)c1cccnc1CNC(=O)c1nc(-c2ccc(=O)n(C)c2)c(-c2ncco2)nc1N [Example 16, 3-amino-N-((3-(dimethylamino)pyridin-2-yl)methyl)-6-(1-methyl-6-oxo-1,6-dihydropyridin-3-yl)-5-(oxazol-2-yl)pyrazine-2-carboxamide]	336 nM	5.3 nM			32 nM	3.9 nM	8.3 nM	15 nM	
CNc1cccc(CNC(=O)c2nc(-c3ccc(=O)n(C)c3)c(-c3ncco3)nc2N)n1 [Example 23, 3-amino-6-(1-methyl-6-oxo-1,6-dihydropyridin-3-yl)-N-[[6-(methylamino)pyridin-2-yl]methyl]-5-(1,3-oxazol-2-yl)pyrazine-2-carboxamide]	880 nM	25 nM	≥ 10000 nM	2.9 nM	281 nM	3.5 nM	64 nM		
Nc1nc(-c2ncco2)c(-c2ccc3nccn3c2)nc1C(=O)NCc1ncccc1F [Example 43, 3-amino-N-((3-fluoropyridin-2-yl)methyl)-6-(imidazo[1,2-a]pyridin-6-yl)-5-(oxazol-2-yl)pyrazine-2-carboxamide]	159 nM	49 nM				21 nM	240 nM	245 nM	10000 nM
Nc1cccc(CNC(=O)c2nc(-c3ccc4nccn4c3)c(-c3ncco3)nc2N)n1 [Example 48, 3-amino-N-[(6-aminopyridin-2-yl)methyl]-6-[imidazo[1,2-a]pyridin-6-yl]-5-(1,3-oxazol-2-yl) pyrazine-2-carboxamide]	84 nM	19 nM			7160 nM	3.1 nM	256 nM	67 nM	
Cn1cnc2ccc(-c3nc(C(=O)NCc4ncccc4F)c(N)nc3-c3ncco3)cc21 [Example 51, 3-amino-N-((3-fluoropyridin-2-yl)methyl)-6-(3-methyl-3H-benzo[d]imidazol-5-yl)-5-(oxazol-2-yl)pyrazine-2-carboxamide]	5.5 nM	1.2 nM			2500 nM	2.1 nM	9.6 nM	78 nM	
Cn1cc(-c2nc(C(=O)NC(CO)c3c(F)cccc3F)c(N)nc2-c2ncco2)ccc1=O (stereo not drawn) [Example 98, 3-amino-N-(1-(2,6-difluorophenyl)-2-hydroxyethyl)-6-(1-methyl-6-oxo-1,6-dihydropyridin-3-yl)-5-(oxazol-2-yl) pyrazine-2-carboxamide]	126 nM	21 nM				9.3 nM	64 nM	10 nM	70 nM
Nc1nc(-c2ncco2)c(-c2ccc3ncnn3c2)nc1C(=O)NCc1ncccc1F [Example 100, 6-([1,2,4]triazolo[1,5-a]pyridin-6-yl)-3-amino-N-((3-fluoropyridin-2-yl)methyl)-5-(oxazol-2-yl)pyrazine-2-carboxamide]	312 nM	76 nM				8.4 nM	4530 nM	685 nM	10000 nM
Cc1cnc2ccc(-c3nc(C(=O)NC[C@H]4CCCO4)c(N)nc3-c3ncco3)cn12 [Example 126, (R)-3-amino-6-(3-methylimidazo[1,2-a]pyridin-6-yl)-5-(oxazol-2-yl)-N-((tetrahydrofuran-2-yl)methyl)pyrazine-2-carboxamide]	77 nM	1.6 nM				1.4 nM	7 nM	78 nM	1230 nM
Cc1cnc2ccc(-c3nc(C(=O)NC[C@@H]4CCCO4)c(N)nc3-c3ncco3)cn12 [Example 127, (S)-3-amino-6-(3-methylimidazo[1,2-a]pyridin-6-yl)-5-(oxazol-2-yl)-N-((tetrahydrofuran-2-yl)methyl)pyrazine-2-carboxamide]	99 nM	1.7 nM				3.1 nM	14 nM	68 nM	2420 nM
Cc1cnc2ccc(-c3nc(C(=O)NC(C)C)c(N)nc3-c3ncco3)cn12 [Example 133, 3-amino-N-isopropyl-6-(3-methyl-imidazo[1,2-a]pyridin-6-yl)-5-(oxazol-2-yl)pyrazine-2-carboxamide]	554 nM	5.9 nM				2.7 nM	19 nM	271 nM	10000 nM
Cc1cnc2ccc(-c3nc(C(=O)NC[C@H]4CCOC4)c(N)nc3-c3ncco3)cn12 [Example 136, (R)-3-amino-6-(3-methylimidazo[1,2-a]pyridin-6-yl)-5-(oxazol-2-yl)-N-((tetrahydrofuran-3-yl)methyl)pyrazine-2-carboxamide]	512 nM	1.8 nM				1.7 nM	27 nM	182 nM	10000 nM
Cc1cnc2ccc(-c3nc(C(=O)NC[C@@H]4CCOC4)c(N)nc3-c3ncco3)cn12 [Example 137, (S)-3-amino-6-(3-methylimidazo[1,2-a]pyridin-6-yl)-5-(oxazol-2-yl)-N-((tetrahydrofuran-3-yl)methyl)pyrazine-2-carboxamide]	464 nM	1.7 nM				3.9 nM	34 nM	195 nM	10000 nM
COCCNC(=O)c1nc(-c2ccc3ncc(C)n3c2)c(-c2ncco2)nc1N [Example 147, 3-amino-N-(2-methoxyethyl)-6-(3-methylimidazo[1,2-a]pyridin-6-yl)-5-(oxazol-2-yl)pyrazine-2-carboxamide]	134 nM	3.8 nM			2380 nM	5.6 nM	15 nM	108 nM	
COC[C@H](C)NC(=O)c1nc(-c2ccc3ncc(C)n3c2)c(-c2ncco2)nc1N [Example 160, (S)-3-amino-N-(1-methoxypropan-2-yl)-6-(3-methylimidazo[1,2-a]pyridin-6-yl)-5-(oxazol-2-yl)pyrazine-2-carboxamide]	163 nM	0.26 nM			4860 nM	3.15 nM	0.89 nM	333 nM	
Cc1cnc2ccc(-c3nc(C(=O)NC4CCC4)c(N)nc3-c3ncco3)cn12 [Example 218, 3-amino-N-cyclobutyl-6-(3-methylimidazo[1,2-a]pyridin-6-yl)-5-(oxazol-2-yl)pyrazine-2-carboxamide]	359 nM	1.5 nM			> 10000 nM	9.1 nM	28 nM	475 nM	
